What was measured:
[1] = Storage stability of aqueous chlorine dioxide solutions, concentration measured by amperometric titration
Description: To determine the impact of various contaminants, the inventors set up a series of experiments to test the effect of the contaminants at various concentrations.
Pure water containing less than 1 ppm solid impurities was used to dissolve the chlorine dioxide gas and form the aqueous chlorine dioxide solutions at a concentration of 3000 ppm+/−5% chlorine dioxide as the initial starting concentration. The data in the figures is reported as % of starting concentration unless otherwise noted.
All data on concentration of aqueous solutions were measured by amperometric titration as described in EPA Standard Methods. Serial dilution was used to adjust to the range of the analytical device.
The accuracy of the analytical technique used is ±3%. Any variation of less than 3% is not considered significant.

[2] = cited from earlier work

[O][Cl+][O-] [chlorine dioxide]
loss of concentration (in words) ([1]; 1500-6000 ppm of salt, even at room temperature, compared with about 100 ppm or less): much higher
rate of deterioration (in words) ([1]; 3000 ppm, alkali metal salts at 100 ppm, 40° C.): deteriorate at a much higher rate
lose % of their concentration ([1]; 3000 ppm, less than 10 ppm alkali metal salts, about 100 days, temperatures up to 40° C.): less than 10%
shelf life (in words) ([1]; FIG. 2, 4500 ppm starting concentration, distilled water, amber glass bottles, 10° C. to about 40° C.): commercially acceptable shelf life
retains % of its starting concentration ([1]; FIG. 2, pure chlorine dioxide at about 3000 ppmw in pure water, 40° C., more than 90 days): ≥ 90%
stability in PET bottles (in words) ([1]; FIG. 4, distilled water, 750 mL biaxially oriented PET bottles, after an initial rapid rate of loss): almost as stable as that stored in glass
stability (in words) ([1]; FIG. 5, 25° C. and up to 100 ppm NaCl): equally stable within the margin of error
rate of deterioration (in words) ([1]; FIG. 5, 100 ppm Na+ and 40° C.): deteriorated at a markedly higher rate
effect of manganese ions on storage stability (in words) ([1]; FIG. 10, 3000 ppm initial, small amounts of manganese ions (e.g., 10 ppm)): greatly diminish the storage stability
shelf life of refrigerated solutions ([1]; refrigerated, inferred from FIG. 2 data): about a year or more
minimum decomposition rate ([2]; pH of 4.85 to 3.90, U.S. 2002/0037248): 0.6 % per hour
strength lost ([2]; within 24 hours, U.S. Pat. No. 7,229,647): 80-90%

Source: patent US11135326B2, “Storage-stable aqueous solutions of chlorine dioxide and methods for preparing and using them” (CDG ENVIRONMENTAL, LLC, priority 2005, dated 2021)
